Measured values from the supplement of paper PMC10307832.

Legend:
Test in all cases: relative viability (nuclei count vs DMSO), 5 days (fraction); higher = more cells survive
COR-L23 = system: COR-L23
Procedure, shortened: (§1)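 Relative viability equals treated-well nuclei counts divided by vehicle-well nuclei counts. Counts came from 4× images of lung cancer cell lines grown in 1536-well plates for 5 days after pin-tool dosing on the day after seeding. Dosing used one drug alone or a fixed anchor-drug dose plus five library-drug doses (not always all listed) in √10 steps, and values are medians of duplicate plates.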

ChaGo-K-1 = system: ChaGo-K-1
Procedure, shortened: as §1

EMC-BAC-2 = system: EMC-BAC-2
Procedure, shortened: as §1

EPLC-272H = system: EPLC-272H
Procedure, shortened: as §1

H3255 = system: H3255
Procedure, shortened: as §1

HCC-44 = system: HCC-44
Procedure, shortened: as §1

HCC-827 = system: HCC-827
Procedure, shortened: as §1

LCLC-103H = system: LCLC-103H
Procedure, shortened: as §1

LU99A = system: LU99A
Procedure, shortened: as §1

NCI-H1395 = system: NCI-H1395
Procedure, shortened: as §1

NCI-H1563 = system: NCI-H1563
Procedure, shortened: as §1

NCI-H1651 = system: NCI-H1651
Procedure, shortened: as §1

NCI-H1793 = system: NCI-H1793
Procedure, shortened: as §1

NCI-H1944 = system: NCI-H1944
Procedure, shortened: as §1

NCI-H2023 = system: NCI-H2023
Procedure, shortened: as §1

NCI-H2085 = system: NCI-H2085
Procedure, shortened: as §1

NCI-H2087 = system: NCI-H2087
Procedure, shortened: as §1

NCI-H2405 = system: NCI-H2405
Procedure, shortened: as §1

NCI-H520 = system: NCI-H520
Procedure, shortened: as §1

NCI-H650 = system: NCI-H650
Procedure, shortened: as §1

NCI-H838 = system: NCI-H838
Procedure, shortened: as §1

SK-MES-1 = system: SK-MES-1
Procedure, shortened: as §1

Structure (SMILES): Nc1ccn([C@@H]2O[C@H](CO)[C@@H](O)[C@@H]2O)c(=O)n1 [Cytarabine] + Nc1nc2[nH]cc(CCc3ccc(C(=O)N[C@@H](CCC(=O)O)C(=O)O)cc3)c2c(=O)[nH]1 [Pemetrexed] (partner 0.2 µM)
- relative viability (COR-L23; first compound 0.005 µM): 0.196
- relative viability (COR-L23; first compound 0.01581 µM): 0.204
- relative viability (COR-L23; first compound 0.05 µM): 0.206
- relative viability (COR-L23; first compound 0.1581 µM): 0.16
- relative viability (COR-L23; first compound 0.5 µM): 0.158
- relative viability (ChaGo-K-1; first compound 0.005 µM): 0.264
- relative viability (ChaGo-K-1; first compound 0.01581 µM): 0.249
- relative viability (ChaGo-K-1; first compound 0.05 µM): 0.239
- relative viability (ChaGo-K-1; first compound 0.1581 µM): 0.209
- relative viability (ChaGo-K-1; first compound 0.5 µM): 0.192
- relative viability (EMC-BAC-2; first compound 0.005 µM): 0.476
- relative viability (EMC-BAC-2; first compound 0.01581 µM): 0.446
- relative viability (EMC-BAC-2; first compound 0.05 µM): 0.31
- relative viability (EMC-BAC-2; first compound 0.1581 µM): 0.244
- relative viability (EMC-BAC-2; first compound 0.5 µM): 0.247
- relative viability (EPLC-272H; first compound 0.005 µM): 0.232
- relative viability (EPLC-272H; first compound 0.01581 µM): 0.338
- relative viability (EPLC-272H; first compound 0.05 µM): 0.289
- relative viability (EPLC-272H; first compound 0.1581 µM): 0.27
- relative viability (EPLC-272H; first compound 0.5 µM): 0.222
- relative viability (H3255; first compound 0.005 µM): 0.625
- relative viability (H3255; first compound 0.01581 µM): 0.565
- relative viability (H3255; first compound 0.05 µM): 0.506
- relative viability (H3255; first compound 0.1581 µM): 0.526
- relative viability (H3255; first compound 0.5 µM): 0.432
- relative viability (HCC-44; first compound 0.005 µM): 0.717
- relative viability (HCC-44; first compound 0.01581 µM): 0.629
- relative viability (HCC-44; first compound 0.05 µM): 0.67
- relative viability (HCC-44; first compound 0.1581 µM): 0.751
- relative viability (HCC-44; first compound 0.5 µM): 0.774
- relative viability (HCC-827; first compound 0.005 µM): 0.222
- relative viability (HCC-827; first compound 0.01581 µM): 0.281
- relative viability (HCC-827; first compound 0.05 µM): 0.161
- relative viability (HCC-827; first compound 0.1581 µM): 0.152
- relative viability (HCC-827; first compound 0.5 µM): 0.113
- relative viability (LCLC-103H; first compound 0.005 µM): 0.458
- relative viability (LCLC-103H; first compound 0.01581 µM): 0.467
- relative viability (LCLC-103H; first compound 0.05 µM): 0.497
- relative viability (LCLC-103H; first compound 0.1581 µM): 0.422
- relative viability (LCLC-103H; first compound 0.5 µM): 0.456
- relative viability (LU99A; first compound 0.005 µM): 0.22
- relative viability (LU99A; first compound 0.01581 µM): 0.179
- relative viability (LU99A; first compound 0.05 µM): 0.177
- relative viability (LU99A; first compound 0.1581 µM): 0.195
- relative viability (LU99A; first compound 0.5 µM): 0.163
- relative viability (NCI-H1395; first compound 0.005 µM): 0.798
- relative viability (NCI-H1395; first compound 0.01581 µM): 0.566
- relative viability (NCI-H1395; first compound 0.05 µM): 0.638
- relative viability (NCI-H1395; first compound 0.1581 µM): 0.361
- relative viability (NCI-H1395; first compound 0.5 µM): 0.326
- relative viability (NCI-H1563; first compound 0.005 µM): 0.823
- relative viability (NCI-H1563; first compound 0.01581 µM): 0.727
- relative viability (NCI-H1563; first compound 0.05 µM): 0.637
- relative viability (NCI-H1563; first compound 0.1581 µM): 0.505
- relative viability (NCI-H1563; first compound 0.5 µM): 0.44
- relative viability (NCI-H1651; first compound 0.005 µM): 0.479
- relative viability (NCI-H1651; first compound 0.01581 µM): 0.569
- relative viability (NCI-H1651; first compound 0.05 µM): 0.223
- relative viability (NCI-H1651; first compound 0.1581 µM): 0.451
- relative viability (NCI-H1651; first compound 0.5 µM): 0.221
- relative viability (NCI-H1793; first compound 0.005 µM): 0.902
- relative viability (NCI-H1793; first compound 0.01581 µM): 0.827
- relative viability (NCI-H1793; first compound 0.05 µM): 0.827
- relative viability (NCI-H1793; first compound 0.1581 µM): 0.374
- relative viability (NCI-H1793; first compound 0.5 µM): 0.206
- relative viability (NCI-H1944; first compound 0.005 µM): 0.505
- relative viability (NCI-H1944; first compound 0.01581 µM): 0.312
- relative viability (NCI-H1944; first compound 0.05 µM): 0.241
- relative viability (NCI-H1944; first compound 0.1581 µM): 0.14
- relative viability (NCI-H1944; first compound 0.5 µM): 0.116
- relative viability (NCI-H2023; first compound 0.005 µM): 0.193
- relative viability (NCI-H2023; first compound 0.01581 µM): 0.126
- relative viability (NCI-H2023; first compound 0.05 µM): 0.105
- relative viability (NCI-H2023; first compound 0.1581 µM): 0.0804
- relative viability (NCI-H2023; first compound 0.5 µM): 0.0895
- relative viability (NCI-H2085; first compound 0.005 µM): 0.788
- relative viability (NCI-H2085; first compound 0.01581 µM): 0.921
- relative viability (NCI-H2085; first compound 0.05 µM): 0.906
- relative viability (NCI-H2085; first compound 0.1581 µM): 0.703
- relative viability (NCI-H2085; first compound 0.5 µM): 0.547
- relative viability (NCI-H2087; first compound 0.005 µM): 0.631
- relative viability (NCI-H2087; first compound 0.01581 µM): 0.616
- relative viability (NCI-H2087; first compound 0.05 µM): 0.647
- relative viability (NCI-H2087; first compound 0.1581 µM): 0.57
- relative viability (NCI-H2087; first compound 0.5 µM): 0.283
- relative viability (NCI-H2405; first compound 0.005 µM): 1
- relative viability (NCI-H2405; first compound 0.01581 µM): 0.654
- relative viability (NCI-H2405; first compound 0.05 µM): 0.61
- relative viability (NCI-H2405; first compound 0.1581 µM): 0.495
- relative viability (NCI-H2405; first compound 0.5 µM): 0.41
- relative viability (NCI-H520; first compound 0.005 µM): 0.605
- relative viability (NCI-H520; first compound 0.01581 µM): 0.65
- relative viability (NCI-H520; first compound 0.05 µM): 0.639
- relative viability (NCI-H520; first compound 0.1581 µM): 0.528
- relative viability (NCI-H520; first compound 0.5 µM): 0.398
- relative viability (NCI-H650; first compound 0.005 µM): 0.809
- relative viability (NCI-H650; first compound 0.01581 µM): 0.581
- relative viability (NCI-H650; first compound 0.05 µM): 0.283
- relative viability (NCI-H650; first compound 0.1581 µM): 0.171
- relative viability (NCI-H650; first compound 0.5 µM): 0.157
- relative viability (NCI-H838; first compound 0.005 µM): 0.243
- relative viability (NCI-H838; first compound 0.01581 µM): 0.235
- relative viability (NCI-H838; first compound 0.05 µM): 0.272
- relative viability (NCI-H838; first compound 0.1581 µM): 0.216
- relative viability (NCI-H838; first compound 0.5 µM): 0.213
- relative viability (SK-MES-1; first compound 0.005 µM): 0.684
- relative viability (SK-MES-1; first compound 0.01581 µM): 0.595
- relative viability (SK-MES-1; first compound 0.05 µM): 0.336
- relative viability (SK-MES-1; first compound 0.1581 µM): 0.233
- relative viability (SK-MES-1; first compound 0.5 µM): 0.207
